These are literature values, as cited in patent publication US4952402A, “Controlled release powder and process for its preparation” (priority 1984, dated 1990).

For the compound `Cn1c(=O)c2[nH]cnc2n(C)c1=O` [theophylline], the apparent biological half-life (in vivo) was 4-9 hours. In addition, the time of peak (rapid or immediate release) was 2 h.
